Data taken from patent US11344635B2, “Compounds for use as iron (III) MRI contrast agents containing anionic pendents and ancillary groups” (The Research Foundation for The State University of New York, priority 2018, dated 2022).

Experiments:
[1] = Effective magnetic moment by Evans method; type: physicochemical; conditions: aqueous solution
Method: Magnetic moments. Samples for studies of magnetic moment by using the Evans method were prepared using a coaxial NMR insert which contained the diamagnetic standard of 5% t-butanol in D2O. The outer 5 mm NMR tube contained 5 mM paramagnetic complex with fixed concentrations; 4 mM, 8 mM, 40 mM, and 70 mM in presence of 5% t-butanol. The effective magnetic moment (μeff, BM) was calculated by using a modified Evans method for small molecules at 298 K (T).

[2] = Phantom (in vitro) MR imaging: T1 and T2 relaxivity; type: physicochemical; conditions: for r1 / r1 with HSA: 37° C.
Method: Preparation of Samples for Phantom MR Imaging: Samples for phantom imaging experiments contained 50-500 μM complex, 20 mM HEPES and 100 mM NaCl. For samples containing Human Serum Albumin (HSA), 35 mg of HSA was added to these solutions. The pH of all solutions was adjusted to 7.0.
Phantom (in vitro) imaging at 4.7 T. MRI acquisitions were performed using a General Electric 4.7 T/33 cm horizontal bore magnet (GE NMR instruments, Fremont, Calif.) incorporating AVANCE digital electronics (Bruker BioSpec platform with ParaVision v 3.0.2 acquisition software, Bruker Medical, Billerica, Mass.). […] T1 relaxation rates (r1) were acquired utilizing a saturation recovery, spin-echo (SE) sequence with a fixed echo time (TE), 10 ms and repetition times (TR) ranging from 75 to 8000 ms. Signal intensities at each repetition time were sampled by taking the mean intensity within regions of interest (ROI's) using commercially available image processing software (Analyze 7.0, AnalyzeDirect, Overland, Kans.), and r1 and SMAX were calculated by nonlinear fitting of the equation using Matlab's Curve Fitting Toolbox (Matlab 7.0, MathWorks Inc., Natick, Mass.). The T1 relaxivity for each complex was then determined by obtaining the slope of the compound's molar concentration vs r1 via linear regression fitting of the data. Similarly, T2 relaxation rates (R2) were acquired using a multiecho, Carr-Purcell-Meiboom Gill (CPMG) SE sequence with a fixed TR of 2500 ms and TE times ranging from 15 to 300 ms, NEX) 2. R2 and SMAX were calculated as described above using the equation As before, the T2 relaxivity was determined by obtaining the slope of concentration vs r2 via linear regression fitting of the data.
Relaxivity values for Fe(TASO) with and without HSA measured at 4.7 T and 9.4 T, pH 7.2 and 37° C. compared to Gd(DTPA).

[3] = Log P octanol/water partition coefficient; type: physicochemical
[4] = Benzoate oxidation in the presence of peroxide and ascorbate (ROS assay); conditions: 50 μM complex, 50 μM H2O2, 50 μM ascorbate, pH 7.2
Method: Benzoate oxidation with 50 μM complex, 50 μM H2O2 and 50 μM ascorbate at pH 7.2. [Fe(EDTA)]^− oxidation is set at 100%.
It is desirable that the Fe(III) complex remain in the trivalent oxidation state and not be reduced by peroxide, superoxide, ascorbate or by glutathione at concentrations present in the extracellular medium of cells such as, for example, mammalian cells (e.g., human cells). Normally, a redox potential more negative than zero mV (<0 mV) versus NHE is sufficient. If the complex were to be reduced to Fe(II) and the Fe(II) complex and the complex has a positive redox potential versus NHE, reactive oxygen species may be produced. For example, [Fe(EDTA)]− has a redox potential of approximately 300 mV and produces ROS as shown by the assay in FIG. 7.

[5] = versus NHE; cited from earlier work
[6] = neutral pH, HEPES buffer, 4.7 Tesla MRI scanner
[7] = with human serum albumin, neutral pH, HEPES buffer, 4.7 Tesla
[8] = 4.7 T, pH 7.2, 37° C., without HSA

O=P([O-])(O)CN1CCN(CP(=O)([O-])O)CCN(CP(=O)([O-])O)CC1.[Fe+3] [Fe(NOTP)]
effective magnetic moment μeff [1]: 5.85±0.14 BM | r1 ([2]; FIG. 11, 4.7 Tesla): 0.66 ± 0.01 mM⁻¹ s⁻¹ | r1 with HSA ([2]; FIG. 11, with HSA, 4.7 Tesla): 1.04 ± 0.06 mM⁻¹ s⁻¹ | r1 [2, 6]: 0.66 mM⁻¹ s⁻¹ | r1 with HSA [2, 7]: 1.0 mM⁻¹ s⁻¹ | Log P octanol/water [3]: −2.02±0.30

O=P([O-])(CN1CCN(CP(=O)([O-])c2ccccc2)CCN(CP(=O)([O-])c2ccccc2)CC1)c1ccccc1.[Fe+3] [Fe(TRAP-Ph)]
r1 [2, 6]: 2.9 mM⁻¹ s⁻¹ | r1 with HSA [2, 7]: 3.5 mM⁻¹ s⁻¹

CNC[C@H](O)[C@@H](O)[C@H](O)[C@H](O)CO.CNC[C@H](O)[C@@H](O)[C@H](O)[C@H](O)CO.O=C([O-])CN(CCN(CC(=O)[O-])CC(=O)O)CCN(CC(=O)[O-])CC(=O)O.[Gd+3] [Gd(DTPA), gadopentetate dimeglumine, reference compound]
r1 4.7 T [2, 8]: 3.1 ± 0.31 mM⁻¹ s⁻¹ | r2 4.7 T [2, 8]: 3.9 ± 0.39 mM⁻¹ s⁻¹ | r1 in HSA 4.7 T ([2]; in HSA, 4.7 T, pH 7.2, 37° C.): 3.2 ± 0.32 mM⁻¹ s⁻¹ | r2 in HSA 4.7 T ([2]; in HSA, 4.7 T, pH 7.2, 37° C.): 4.0 ± 0.40 mM⁻¹ s⁻¹

O=C([O-])CN(CCN(CC(=O)[O-])CC(=O)[O-])CC(=O)[O-].[Fe+3] [[Fe(EDTA)]^−]
Benzoate oxidation / ROS production (in words) [4]: produces ROS | Benzoate oxidation relative to [Fe(EDTA)]− ([4]; reference set at 100%): 100% | redox potential [5]: approximately 300 mV
